Data taken from the Deep4Chem optical property database.
Several values for one entry are separate records, joined by “and”; a condition that tells them apart may be missing. Identical values can stand only once. Each block holds one compound with its values, some of them ahead of it.

Assay: solvent given as SMILES

- absorption maximum (in ClCCl): 423 nm
SMILES: CN(C)c1ccc(/C=C/c2cc(/C=C/c3ccc(N(C)C)cc3)nc(/C=C/c3ccccc3)n2)cc1

- absorption maximum (in CS(C)=O): 398 nm
- absorption maximum (in O): 385 nm
SMILES: O=c1c2ccccc2[nH]c2ccccc12

- absorption maximum (in C1CCOC1): 376 nm
- absorption maximum (in CC#N): 377 nm
- absorption maximum (in CCCCCCC): 373 nm
- absorption maximum (in CS(C)=O): 383 nm
- absorption maximum (in ClCCl): 381 nm
SMILES: CSc1ccc(/C=C/c2cnc3ccccc3n2)cc1

- absorption maximum (in ClCCl): 359 nm and 380 nm
SMILES: CCCCCC(=O)c1cccc2sc3c(c12)P(=O)(c1ccccc1)c1ccccc1-3 (centres undefined)

SMILES: CCCCCCCCCCCCn1cccc1/C=C/c1ccc(OCCCC)c2c(/C=C/c3cccn3CCCCCCCCCCCC)ccc(OCCCC)c12
- absorption maximum (in Cc1ccccc1): 375 nm

SMILES: N#Cc1c(-n2c3ccccc3c3cc(I)ccc32)c(C#N)c(-n2c3ccccc3c3cc(I)ccc32)c(-n2c3ccccc3c3cc(I)ccc32)c1-n1c2ccccc2c2cc(I)ccc21
- absorption maximum (in Cc1ccccc1): 383 nm

- absorption maximum (in ClCCl): 406 nm
SMILES: [O-][n+]1c(/C=C/c2ccc(/C=C/c3ccccc3)cc2)nc(N2CCOCC2)c2c1CCCC2

- absorption maximum (in C1CCCCC1): 385 nm
- absorption maximum (in C1CCOC1): 402 nm
- absorption maximum (in C1COCCO1): 393 nm
- absorption maximum (in CC#N): 392 nm
- absorption maximum (in CC(C)(C)O): 407 nm
- absorption maximum (in CC(C)O): 404 nm
- absorption maximum (in CCCCCC): 383 nm
- absorption maximum (in CCCCO): 405 nm
- absorption maximum (in CCO): 402 nm
- absorption maximum (in CCOC(C)=O): 397 nm
- absorption maximum (in CN(C)C=O): 407 nm
- absorption maximum (in CO): 399 nm
- absorption maximum (in CS(C)=O): 410 nm
- absorption maximum (in ClC(Cl)Cl): 398 nm
- absorption maximum (in ClCCl): 392 nm
- absorption maximum (in O): 395 nm
- absorption maximum (in OCCO): 401 nm
SMILES: Cc1cc(O)c(C(C)C)cc1/N=C/c1ccc([N+](=O)[O-])cc1

- absorption maximum (in ClCCl): 341 nm
SMILES: O=S1(=O)c2ccc(-c3ccc(-n4c5ccccc5c5ccccc54)cc3)cc2C2(c3ccccc3-c3ccccc32)c2cc(-c3ccc(-n4c5ccccc5c5ccccc54)cc3)ccc21

- absorption maximum (in C1COCCO1): 395 nm
- absorption maximum (in CC#N): 387 nm
- absorption maximum (in CO): 381 nm
SMILES: N#Cc1ccc(/C=C/C=C/C2=NC3C(=O)NC(N)=NC3N2[C@H]2C[C@H](O)[C@@H](CO)O2)cc1 (some centres undefined)

SMILES: CCCCOC(=O)c1cc(Oc2ccc(C(C)(C)C)cc2)c2c3c(Cl)cc4c5c(cc(Cl)c(c6c(Oc7ccc(C(C)(C)C)cc7)cc(C(=O)OCCCC)c1c26)c53)C(=O)N(c1c(C(C)C)cccc1C(C)C)C4=O
- absorption maximum (in Cc1ccccc1): 529 nm

SMILES: CC1(C)c2ccccc2N(c2ccccc2)c2ccc(-c3nc(-c4ccccc4)nc(-c4ccccc4)n3)cc21
- absorption maximum (in Cc1ccccc1): 389.97 nm

- absorption maximum (in C1CCOC1): 331 nm
- absorption maximum (in CC#N): 336 nm
- absorption maximum (in CS(C)=O): 344 nm
- absorption maximum (in ClC(Cl)Cl): 341 nm
SMILES: O=c1oc2ccccc2cc1-c1ccc([N+](=O)[O-])cc1

- absorption maximum (in C1COCCO1): 404 nm
SMILES: COC(=O)c1ccc(/C=C2\C=C(c3ccc(C#N)cc3)OC2=O)cc1

SMILES: CCN(CC)c1cccc2c1ccc1c(=O)oc(-c3ccc(C(F)(F)F)cc3)cc12
- absorption maximum (in CC(C)=O): 390 nm
- absorption maximum (in CCCCCC): 388 nm
- absorption maximum (in CCCCCCCCO): 393 nm
- absorption maximum (in CCCCO): 392 nm
- absorption maximum (in CCCO): 391 nm
- absorption maximum (in CCO): 392 nm
- absorption maximum (in CCOC(C)=O): 389 nm
- absorption maximum (in CN(C)C=O): 394 nm
- absorption maximum (in CO): 391 nm

- absorption maximum (in CO): 403 nm
SMILES: c1ccc(N(c2ccccc2)c2ccc(-c3cnc(-c4ccncc4)s3)cc2)cc1

- absorption maximum (in CCO): 413 nm
SMILES: CN(C)c1ccc(-c2ccc(C#N)s2)s1

- absorption maximum (in C1CCCCC1): 308 nm
SMILES: CC(C)(C)c1ccc2c(c1)Cc1cc(C(C)(C)C)ccc1-2

- absorption maximum (in CC#N): 363 nm
SMILES: C=Cc1cc2cc3c(cc2oc1=O)OCO3

SMILES: Cc1cc(-n2c3ccccc3c3cc(C#N)ccc32)ccc1-c1ccc(S(=O)(=O)c2ccccc2)cc1C
- absorption maximum (in Cc1ccccc1): 341 nm

- absorption maximum (in ClC(Cl)Cl): 315 nm
SMILES: CCCCCCc1ccc(-n2c3c4cccc(OC)c4nc(-c4ccc(C)cc4)c3c3c2c2c(-c4ccc(C)cc4)nc4c(OC)cccc4c2n3-c2ccc(CCCCCC)cc2)cc1

- absorption maximum (in CCO): 364 nm
SMILES: CN(C)c1cc2c(cc1F)c(=O)c1cc(F)c(N3CCCCC3)cc1n2C

SMILES: O=C1O[B-]2(OC1=O)OC(c1ccc3ccccc3c1)=CC(c1ccc3ccccc3c1)=[O+]2
- absorption maximum (in CC#N): 435 nm
- absorption maximum (in ClC(Cl)(Cl)Cl): 438 nm

- absorption maximum (in ClCCl): 321 nm
SMILES: CCOC(=O)c1c(-c2c(Cl)c3ccccc3oc2=O)nn(-c2cccc(Cl)c2)c1C(=O)OCC

- absorption maximum (in ClCCl): 314 nm
SMILES: COc1cc2c(cc1OC)C1=C[C@H](c3ccccc3)C3(C(C(=O)O[C@@H]4C[C@H]5CC[C@@H]4C5)=C(C(=O)O[C@H]4C[C@@H]5CC[C@H]4C5)N1CC2)c1ccccc1-c1ccccc13

- absorption maximum (in C1CCOC1): 431 nm
SMILES: CCCCCCc1cc2c(s1)-c1sc(CCCCCC)cc1P(c1ccccc1)(c1ccccc1)=[O+][B-]2(c1c(C)cc(C)cc1C)c1c(C)cc(C)cc1C

- absorption maximum (in ClCCl): 392 nm
SMILES: COC(=O)c1[nH]c(-c2ccccc2)c2nnc3ccc(OC)cc3c12

- absorption maximum (in ClCCl): 357 nm
SMILES: C(=C\c1cccc2ccccc12)/c1ncc(-c2ccccc2)o1

SMILES: Cc1cc(C)c(B(c2c(C)cc(C)cc2C)c2c(C)cc(-n3c4ccccc4c4cc(N(c5ccccc5)c5ccccc5)ccc43)cc2C)c(C)c1
- absorption maximum (in Cc1ccccc1): 375 nm

- absorption maximum (in O): 429 nm
SMILES: CC(=O)c1ccn2c3c(c(-c4cc[n+](C)cc4)c2c1)CN(C)C3=O

- absorption maximum (in O): 413 nm
SMILES: O=C(O)c1cccc2c(=O)c3ccccc3[nH]c12

SMILES: CC(C)(C)c1ccc(N(c2ccc(S(=O)(=O)c3ccc(S(=O)(=O)c4ccc(N(c5ccc(C(C)(C)C)cc5)c5ccccc5C(C)(C)C)cc4)cc3)cc2)c2ccccc2C(C)(C)C)cc1
- absorption maximum (in Cc1ccccc1): 351 nm

- absorption maximum (in ClC(Cl)Cl): 355 nm
SMILES: O=Cc1ccc(Oc2ccc3c4c(cccc24)C(=O)N(CCO)C3=O)cc1

- absorption maximum (in ClCCl): 347 nm
SMILES: CCOC(=O)c1c(-c2cc3cc4c(cc3oc2=O)OC(C)(C)CC4)nn(-c2cccc(C)c2)c1C(=O)OCC

- absorption maximum (in ClCCl): 555 nm
SMILES: COc1ccc(C2=C(C)C3=C(c4c(-c5ccccn5)nc5ccccn45)c4c(C)c(-c5ccc(OC)cc5)c(C)n4[B-](F)(F)[N+]3=C2C)cc1

SMILES: CSc1cc(-c2cc3cc4c5c(c3oc2=O)CCCN5CCC4)oc(=O)c1C#N
- absorption maximum (in C1CCOC1): 532 nm
- absorption maximum (in CC#N): 537 nm
- absorption maximum (in CC(C)=O): 536 nm
- absorption maximum (in CCOC(C)=O): 527 nm
- absorption maximum (in CN(C)C=O): 545 nm
- absorption maximum (in CO): 537 nm
- absorption maximum (in CS(C)=O): 549 nm
- absorption maximum (in Cc1ccccc1): 527 nm
- absorption maximum (in ClC(Cl)Cl): 538 nm
- absorption maximum (in ClCCl): 541 nm

SMILES: CCCCCCCCCCC1(CCCCCCCCCC)c2cc(N3C(=O)c4ccc5c6ccc7c8c(ccc(c9ccc(c4c59)C3=O)c86)C(=O)N(c3ccc4c(c3)C(CCCCCCCCCC)(CCCCCCCCCC)c3cc(N(c5ccccc5)c5ccccc5)ccc3-4)C7=O)ccc2-c2ccc(N(c3ccccc3)c3ccccc3)cc21
- absorption maximum (in Cc1ccccc1): 528 nm
- absorption maximum (in ClCCl): 527 nm

- absorption maximum (in ClC(Cl)Cl): 471 nm
SMILES: COc1ccc2c(c1)c(C#N)cc1c(OC)c(OC)c3cc(C#N)c4cc(OC)ccc4c3c12

- absorption maximum (in C1CCOC1): 387 nm
SMILES: O=P1(c2ccccc2)C(c2ccc(C3=Cc4ccccc4P3(=O)c3ccccc3)cc2)=Cc2ccccc21 (centres undefined)

- absorption maximum (in O): 350 nm
SMILES: NC(=O)C1=CN([C@H]2C[C@H](O)[C@@H](COP(=O)([O-])OP(=O)([O-])OC[C@H]3O[C@@H](n4cnc5c(N)ncnc54)C[C@@H]3O)O2)C=CC1

- absorption maximum (in C1CCCCC1): 409 nm
SMILES: Cc1cc(C)c(B2c3cc(C(C)(C)C)ccc3-c3cccc4cc(C(C)(C)C)cc2c34)c(C)c1

- absorption maximum (in ClC(Cl)Cl): 480 nm
SMILES: N#CC1=CC(c2ccccc2)=CC(C#N)=P1(c1ccccc1)c1ccccc1

- absorption maximum (in ClCCl): 307 nm
SMILES: C[Si](c1ccc(-c2nc3ccccc3n2-c2ccccc2)cc1)(c1ccc(-c2nc3ccccc3n2-c2ccccc2)cc1)c1ccc(-c2nc3ccccc3n2-c2ccccc2)cc1

- absorption maximum (in C1COCCO1): 313 nm
- absorption maximum (in CC#N): 313 nm
- absorption maximum (in CO): 318 nm
- absorption maximum (in ClCCl): 311 nm
SMILES: N#Cc1nc2c(OCc3ccccc3)nc(N)nc2n1Cc1ccccc1

- absorption maximum (in c1cc(-c2cccc(-n3c4ccccc4c4ccccc43)c2)cc(-n2c3ccccc3c3ccccc32)c1): 363.44 nm
SMILES: Cc1cc(-c2nc(-c3ccccc3)nc(-c3ccccc3)n2)c(C)cc1-c1ccc2c(c1)C1(c3ccccc3-c3ccccc31)c1ccccc1N2c1ccccc1

SMILES: F[B-]1(F)n2cccc2C(c2ccc(-c3c4ccccc4c(-c4ccccc4)c4ccccc34)cc2)=C2C=CC=[N+]21
- absorption maximum (in CC#N): 498 nm
- absorption maximum (in CCCCCC): 501 nm
- absorption maximum (in CCO): 500 nm
- absorption maximum (in CN(C)C=O): 502 nm
- absorption maximum (in Cc1ccccc1): 505 nm
- absorption maximum (in ClCCl): 502 nm

- absorption maximum (in C1CCCCC1): 271.81 nm
SMILES: COc1ccc(-c2ccc(OC)cc2)cc1

- absorption maximum (in C1CCOC1): 286 nm
SMILES: F[Si-](F)(c1ccccc1)(c1ccccc1)c1cccc2ccccc12

- absorption maximum (in ClC(Cl)Cl): 571 nm
SMILES: CC(C)(C)c1ccc(Oc2c3c4c(cc(Oc5ccc(C(C)(C)C)cc5)c5c6c(Oc7ccc(C(C)(C)C)cc7)c(Oc7ccc(C(C)(C)C)cc7)c7c8c(cc(Oc9ccc(C(C)(C)C)cc9)c(c(c2Oc2ccc(C(C)(C)C)cc2)c45)c86)C(=O)OC7=O)C(=O)OC3=O)cc1

SMILES: COc1cc(OC)cc(-c2ccc(-c3ccc(C#N)s3)s2)c1
- absorption maximum (in C1CCCCC1): 360 nm
- absorption maximum (in C1COCCO1): 366 nm
- absorption maximum (in CC#N): 364 nm
- absorption maximum (in CC(C)O): 365 nm
- absorption maximum (in CCCCO): 367 nm
- absorption maximum (in CCO): 365 nm
- absorption maximum (in CCOC(C)=O): 365 nm
- absorption maximum (in CN(C)C=O): 370 nm
- absorption maximum (in CO): 364 nm
- absorption maximum (in CS(C)=O): 372 nm
- absorption maximum (in Cc1ccccc1): 366 nm
- absorption maximum (in ClC(Cl)Cl): 367 nm
- absorption maximum (in ClCCl): 366 nm
- absorption maximum (in O): 337 nm

SMILES: CCC1=C(C)C(=O)n2c1cc1c(C)c(CCC(=O)O)c(C)n1c2=O
- absorption maximum (in CC#N): 408 nm
- absorption maximum (in CC(C)=O): 413 nm
- absorption maximum (in CO): 425 nm
- absorption maximum (in CS(C)=O): 426 nm
- absorption maximum (in ClC(Cl)Cl): 428 nm
- absorption maximum (in c1ccccc1): 421 nm

- absorption maximum (in CN(C)C=O): 334 nm
SMILES: O=c1[nH]nc(-c2ccc(/C=C/c3ccc(-c4n[nH]c(=O)o4)cc3)cc2)o1

- absorption maximum (in C1CCCCC1): 355 nm
SMILES: C=CB1C=Cc2ccc3ccccc3c2N1
